Consider 18 compounds from patent US9266835B2, “Quinoline derivatives useful as CB-1 inverse agonists” (JANSSEN PHARMACEUTICA NV, priority 2014, dated 2016).

The structures appear in SMILES notation. Where two headings read alike, the source gives them in different places.

The term EC50 denotes the concentration that produces a half-maximal response.

Series [1] concerns the target Human CB1R (Cannabinoid receptor 1) (Homo sapiens (Human), UniProt P21554). Briefly: CB-1 in vitro cAMP assay (HTRF), inverse agonism. It counts as cell-based. The note with it: mean where tested more than once. A general note: cAMP levels reflect the balance of adenylyl cyclase and phosphodiesterase activity.
Series [2] has as its target Human CB2R (Cannabinoid receptor 2) (Homo sapiens (Human), UniProt P34972). Briefly: CB-2 in vitro cAMP assay (HTRF), inverse agonism. The class given is cell-based. The following applies: mean where tested more than once.
The nature of series [3]: Mouse Fast PK/BBB (plasma and brain concentration). It counts as in vivo. The following applies: male, C57bl/6j, oral, N=3 (dose given as 30 mg/kg and 20 mg/kg). From the text:
Male Sprague Dawley rats were ordered from Charles River (225-250 gm upon arrival). They were fed standard chow diet (Purina 5001) and housed 2 per cage. Male C57bl/6j mice were ordered from Charles River at 22-25 g and housed 3 per cage. They were fed standard chow (Purina 5001). All animals were housed in a temperature-controlled room with 12-hour light/dark cycle. Animals were given food and water ad libitum, except as noted.
Test compounds were formulated in 10% PEG400 and 10% solutol. Test compounds were administered by oral gavage (5 ml kg^−1).
Male C57bl/6j mice were dosed with test compounds at 30 mg/kg. Plasma was collected via retro-orbital bleeding at 1 hr and 4 hrs after dosing. Whole brain without cerebellum was collected at 4 hrs after dosing. Wet brain weight was recorded before freezing. Brains were homogenized in saline and sent for analysis for determination of concentration of test compound.
Table BIO-3 below present results for representative compounds of the present invention, tested according to the procedure as described above. Each compound was tested in three animals (N=3) and administered PA at 20 mg/kg

Series [4] in a line: Mouse Fast PK/BBB (plasma and brain concentration). The class given is in vivo. The following applies: oral, N=3 (dose given as 30 mg/kg and 20 mg/kg).
The mark [5] stands for this setting: brain, read-out: BRAIN Mean Conc. ± Std. Dev.
[6] abbreviates: plasma, read-out: PLASMA Mean Conc. ± Std. Dev.

Human CB2R (Cannabinoid receptor 2), sequence (P34972 whole entry): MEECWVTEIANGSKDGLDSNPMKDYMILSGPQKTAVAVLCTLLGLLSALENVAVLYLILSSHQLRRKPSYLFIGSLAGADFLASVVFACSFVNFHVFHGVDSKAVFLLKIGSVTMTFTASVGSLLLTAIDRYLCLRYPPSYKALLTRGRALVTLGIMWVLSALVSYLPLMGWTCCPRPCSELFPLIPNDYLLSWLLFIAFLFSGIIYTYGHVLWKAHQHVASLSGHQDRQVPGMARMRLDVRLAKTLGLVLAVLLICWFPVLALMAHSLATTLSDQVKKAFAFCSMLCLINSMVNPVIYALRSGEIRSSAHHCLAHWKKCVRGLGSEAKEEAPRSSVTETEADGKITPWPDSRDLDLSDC
Human CB1R (Cannabinoid receptor 1), sequence (P21554 whole entry): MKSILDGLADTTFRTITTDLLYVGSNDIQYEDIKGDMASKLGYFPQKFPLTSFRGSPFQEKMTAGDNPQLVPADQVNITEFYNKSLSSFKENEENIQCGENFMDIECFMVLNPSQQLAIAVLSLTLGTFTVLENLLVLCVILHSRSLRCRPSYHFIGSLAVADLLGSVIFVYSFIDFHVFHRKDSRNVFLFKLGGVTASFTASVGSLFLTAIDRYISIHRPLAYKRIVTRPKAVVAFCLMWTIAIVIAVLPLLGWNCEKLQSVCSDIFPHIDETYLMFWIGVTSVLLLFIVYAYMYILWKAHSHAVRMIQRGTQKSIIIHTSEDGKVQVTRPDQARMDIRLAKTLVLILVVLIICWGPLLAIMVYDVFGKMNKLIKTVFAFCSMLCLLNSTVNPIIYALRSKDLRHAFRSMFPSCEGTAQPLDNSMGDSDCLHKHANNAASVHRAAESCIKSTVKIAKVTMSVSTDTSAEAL

`COC/C=C/c1cc(C(c2ccc(Cl)cc2)c2ccc(Cl)cc2)cc2c(NC3CCN(S(=O)(=O)C(F)(F)F)CC3)cc(OC)nc12` [Compound 547, 6-(bis(4-chlorophenyl)methyl)-2-methoxy-8-(3-methoxyprop-1-en-1-yl)-N-(1-((trifluoromethyl)sulfonyl)piperidin-4-yl)quinolin-4-amine]: the values for the EC50 in series [1] and in series [2] were 36 nM and over 42000 nM, respectively.
As for `COCCCc1cc(C(c2ccc(Cl)cc2)c2ccc(Cl)cc2)cc2c(NC3CCN(S(=O)(=O)C(F)(F)F)CC3)cc(OC)nc12` [Compound 548, 6-[bis(4-chlorophenyl)methyl]-2-methoxy-8-(3-methoxypropyl)-N-[1-(trifluoromethane)sulfonylpiperidin-4-yl]quinolin-4-amine], the EC50 was 58 nM in series [1] and over 42000 nM in series [2].
For `COc1cc(NC2CCN(S(=O)(=O)C(F)(F)F)CC2)c2cc(C(c3ccc(Cl)cc3)c3ccc(Cl)cc3)cc(/C=C/CO)c2n1` [Compound 549, (2E)-3-[6-[bis(4-chlorophenyl)methyl]-2-methoxy-4-[[1-(trifluoromethane)sulfonylpiperidin-4-yl]amino]quinolin-8-yl]prop-2-en-1-ol], the EC50 in series [1] is 36 nM; in series [2] it was 3800 nM.
The corresponding values for `COc1cc(NC2CCN(S(=O)(=O)C(F)(F)F)CC2)c2cc(C(c3ccc(Cl)cc3)c3ccc(Cl)cc3)cc(CCCO)c2n1` [Compound 550, 3-(6-(bis(4-chlorophenyl)methyl)-2-methoxy-4-((1-((trifluoromethyl)sulfonyl)piperidin-4-yl)amino)quinolin-8-yl)propan-1-ol] are 31 nM and 115 nM.
In the case of `O=c1cc(NC2CCN(S(=O)(=O)C(F)(F)F)CC2)c2cc(C(c3ccc(Cl)cc3)c3nccs3)ccc2[nH]1` (centres unmarked) [Compound #41, 6-((4-chlorophenyl)(thiazol-2-yl)methyl)-4-((1-((trifluoromethyl)sulfonyl)piperidin-4-yl)amino)quinolin-2(1H)-one], the values for the EC50 in series [1] and in series [2] were 15 nM and 8150 nM, respectively. For the same compound, the concentration at 4 h in series [3] (setting [5]) was 0 ng/mL; in series [3] (setting [6]) it was 291 ± 90.5 ng/mL. Moreover, the concentration at 1 h in series [3] (setting [6]) amounted to 714 ± 188 ng/mL; in series [4] (male, C57bl/6j, brain, read-out: BRAIN Mean Conc. ± Std. Dev), 7.43 ng/mL.
Regarding `Cn1c(=O)cc(NC2CCN(S(=O)(=O)C(F)(F)F)CC2)c2cc(C(c3ccc(Cl)cc3)c3ccc(Cl)cc3)ccc21` [Compound #49, 6-[bis(4-chlorophenyl)methyl]-1-methyl-4-[[1-(trifluoromethane)sulfonylpiperidin-4-yl]amino]-1,2-dihydroquinolin-2-one], the values for the EC50 in series [1] and in series [2] were 24 nM and over 10000 nM, respectively.
Taken in the same sequence, the figures for `O=c1cc(NC2CCN(S(=O)(=O)C(F)(F)F)CC2)c2cc(C(c3ccc(Cl)cc3)c3ccc(Cl)c(Cl)c3)ccc2[nH]1` (centres unmarked) [Compound #53, 6-[(4-chlorophenyl)(3,4-dichlorophenyl)methyl]-4-[[1-(trifluoromethane)sulfonylpiperidin-4-yl]amino]-1,2-dihydroquinolin-2-one] were 20 nM and over 14000 nM.
Taken in the same sequence, the figures for `COc1ccc(C(c2ccc(Cl)cc2)c2ccc3[nH]c(=O)cc(NC4CCN(S(=O)(=O)C(F)(F)F)CC4)c3c2)cc1` (centres unmarked) [Compound #54, 6-((4-chlorophenyl)(4-methoxyphenyl)methyl)-4-((1-((trifluoromethyl)sulfonyl)piperidin-4-yl)amino)quinolin-2(1H)-one] were 8 nM and 1830 nM.
Take `CCS(=O)(=O)N1CCC(Nc2cc(=O)[nH]c3ccc(C(c4ccc(Cl)cc4)c4ccc(Cl)cc4)cc23)CC1` [Compound #56, 6-(bis(4-chlorophenyl)methyl)-4-((1-(ethylsulfonyl)piperidin-4-yl)amino)quinolin-2(1H)-one]: the EC50 was 22 nM in series [1] and over 10000 nM in series [2].
With `O=c1cc(Nc2ccc(C(F)(F)F)cc2)c2cc(C(c3ccc(Cl)cc3)c3ccc(Cl)cc3)ccc2[nH]1` [Compound #59, 6-(bis(4-chlorophenyl)methyl)-4-((4-(trifluoromethyl)phenyl)amino)quinolin-2(1H)-one], the results for the EC50 in series [1] and in series [2] were 7 nM and over 10000 nM, respectively. Besides, the concentration at 4 h in series [3] (setting [5]) came to 59.7 ± 9.55 ng/mL; in series [3] (setting [6]), 1610 ± 563 ng/mL. Moreover, the concentration at 1 h in series [3] (setting [6]) stood at 2320 ± 1020 ng/mL. Moreover, the “BRAIN Mean Conc. ± Std. Dev” value in series [4] (1 hr) was “BLOQ ± NA”.
For the compound `O=c1cc(NCc2cccc(C(F)(F)F)c2)c2cc(C(c3ccc(Cl)cc3)c3ccc(Cl)cc3)ccc2[nH]1` [Compound #61, 6-(bis(4-chlorophenyl)methyl)-4-((3-(trifluoromethyl)benzyl)amino)quinolin-2(1H)-one], the EC50 in series [1] worked out at 7 nM; in series [2], 1810 nM.
`O=c1cc(NC2CCN(S(=O)(=O)C(F)(F)F)CC2)c2cc(C(c3ccc(O)cc3)c3ccc(Cl)cc3)ccc2[nH]1` (centres unmarked) [Compound #66, 6-((4-chlorophenyl)(4-hydroxyphenyl)methyl)-4-((1-((trifluoromethyl)sulfonyl)piperidin-4-yl)amino)quinolin-2(1H)-one]: the EC50 in series [1] was found to be 22 nM; in series [2], 7690 nM.
The corresponding values for `O=c1cc(NCc2ccc(C(F)(F)F)nc2)c2cc(C(c3ccc(Cl)cc3)c3ccc(Cl)cc3)ccc2[nH]1` [Compound #70, 6-(bis(4-chlorophenyl)methyl)-4-(((6-(trifluoromethyl)pyridin-3-yl)methyl)amino)quinolin-2(1H)-one] are 7 nM and over 10000 nM.
The corresponding values for `O=c1cc(NC2CCCCC2)c2cc(C(c3ccc(Cl)cc3)c3ccc(Cl)cc3)ccc2[nH]1` [Compound #71, 6-(bis(4-chlorophenyl)methyl)-4-(cyclohexylamino)quinolin-2(1H)-one] are 7 nM and over 10000 nM.
The corresponding values for `O=c1cc(NC2CCN(S(=O)(=O)C(F)(F)F)CC2)c2cc(C(c3ccc(Cl)cc3)c3ccc(Cl)nc3)ccc2[nH]1` (centres unmarked) [Compound #72, 6-[(4-chlorophenyl)(6-chloropyridin-3-yl)methyl]-4-[[1-(trifluoromethane)sulfonylpiperidin-4-yl]amino]-1,2-dihydroquinolin-2-one] are 11 nM and 6600 nM.
As to `O=c1cc(NC2CCN(CC(F)(F)F)CC2)c2cc(C(c3ccc(Cl)cc3)c3ccc(Cl)cc3)ccc2[nH]1` [Compound #77, 6-(bis(4-chlorophenyl)methyl)-4-((1-(2,2,2-trifluoroethyl)piperidin-4-yl)amino)quinolin-2(1H)-one], the EC50 in series [1] is 3 nM; in series [2], over 10000 nM.
With `O=c1cc(NC2CCN(S(=O)(=O)C(F)(F)F)CC2)c2cc(C(Cc3ccc(F)cc3)c3ccc(Cl)cc3)ccc2[nH]1` (centres unmarked) [Compound #135, 6-(1-(4-chlorophenyl)-2-(4-fluorophenyl)ethyl)-4-((1-((trifluoromethyl)sulfonyl)piperidin-4-yl)amino)quinolin-2(1H)-one], the EC50 amounted to 1100 nM in series [1] and 6810 nM in series [2].
As to `O=c1cc(NC2CCN(S(=O)(=O)C(F)(F)F)CC2)c2cc(C(Oc3ccc(Cl)cc3)c3ccc(Cl)cc3)ccc2[nH]1` (centres unmarked) [Compound #136, 6-[4-chlorophenoxy(4-chlorophenyl)methyl]-4-[[1-(trifluoromethane)sulfonylpiperidin-4-yl]amino]-1,2-dihydroquinolin-2-one], the EC50 is 122 nM in series [1] and over 10000 nM in series [2].
